Reference: publication PMC8119466, “A screen of FDA-approved drugs identifies inhibitors of protein tyrosine phosphatase 4A3 (PTP4A3 or PRL-3)” (Scientific Reports, 2021)
Read-outs that look alike come from different tables or passages of the source.

How the values were obtained:
recombinant PRL-3 = biological target: T1, recombinant PRL-3 (Homo sapiens, UniProt O75365); assay: In vitro phosphatase assay (DiFMUP hydrolysis), PRL-3; format: biochemical; conditions: for IC50: DiFMUP at KM, read-out: Calculated IC50, PRL-3 phosphatase activity; for mode of inhibition (Lineweaver-Burke analysis): versus DiFMUP substrate, reduce apparent Vmax, do not affect KM; for % Phosphatase Activity (compared to DMSO) PRL-3: FDA-approved drug screen
T1 construct: 6xHis (N, cleaved yes); made in house; host or cells: E. coli One Shot BL21 Star
T1 sequence (O75365 whole entry): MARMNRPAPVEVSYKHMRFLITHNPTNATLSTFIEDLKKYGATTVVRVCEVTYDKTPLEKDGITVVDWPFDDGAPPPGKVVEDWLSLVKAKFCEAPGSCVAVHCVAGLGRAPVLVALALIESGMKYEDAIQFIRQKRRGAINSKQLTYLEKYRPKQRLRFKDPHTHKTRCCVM

phospho-ERK = assay: Western blot of phospho-ERK in HCT116 cells; format: cell-based, human; conditions: HCT116, 24 hr; 100 µM Salirasib, 25 µM Candesartan
Description: Cells were lysed using Qproteome lysis buffer (Qiagen, Cat # 37901), then spun at 14,000 rpm for 10 min at 4 °C. Protein concentration in the supernatant was quantified using BCA assay (Thermo Scientific, Cat # 23227). 30 μg of protein was loaded into each lane of a TGX-stain-free pre-cast 4–20% SDS gel (Biorad, Cat # 4568094), total protein was quantified upon stain-free gel imaging, and protein was transferred onto PVDF membrane using the Trans-Blot Turbo Transfer System (BioRad, Cat # 1704150). Membranes were blocked with 5% milk in 1% TBST for 1 h, and a 1:1000 dilution of Anti-PRL-3 antibody (R&D Biosystems, Cat # MAB3219), 1:5000 phospho-ERK (Cell Signaling, Cat # 19101) or 1:5000 total ERK (Cell Signaling, Cat # 137F5) was added overnight. Following three washes in TBST, secondary HRP-conjugated antibody (GE, Cat # NA9340V) were added at a 1:5000 dilution for 1 h and membranes imaged using Clarity Western ECL Substrate. (BioRad, Cat # 1705061).

MKP5 = biological target: T2, MKP5 (Homo sapiens, UniProt Q9Y6W6); assay: PhosphataseProfiler (Eurofins) selectivity panel; format: biochemical; conditions: MKP5, 25µM
T2 construct: purchased Eurofins PP260
T2 sequence (Q9Y6W6 whole entry): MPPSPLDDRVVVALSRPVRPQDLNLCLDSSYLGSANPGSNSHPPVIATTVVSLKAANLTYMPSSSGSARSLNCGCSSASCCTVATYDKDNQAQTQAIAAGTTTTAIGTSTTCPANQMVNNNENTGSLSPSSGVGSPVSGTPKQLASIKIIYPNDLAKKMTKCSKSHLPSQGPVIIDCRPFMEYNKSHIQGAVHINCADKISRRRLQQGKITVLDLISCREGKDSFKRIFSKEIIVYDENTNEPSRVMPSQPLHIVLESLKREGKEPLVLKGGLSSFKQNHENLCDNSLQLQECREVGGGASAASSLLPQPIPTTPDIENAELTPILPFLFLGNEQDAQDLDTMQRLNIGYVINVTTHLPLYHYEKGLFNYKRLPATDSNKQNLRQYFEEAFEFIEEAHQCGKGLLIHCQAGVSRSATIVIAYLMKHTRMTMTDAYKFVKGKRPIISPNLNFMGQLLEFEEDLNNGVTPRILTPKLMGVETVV

PTPbeta = biological target: T3, PTPbeta (Homo sapiens, UniProt P23467); assay: PhosphataseProfiler (Eurofins) selectivity panel; format: biochemical; conditions: 25µM
T3 construct: purchased Eurofins PP260
T3 sequence (P23467 23-1997): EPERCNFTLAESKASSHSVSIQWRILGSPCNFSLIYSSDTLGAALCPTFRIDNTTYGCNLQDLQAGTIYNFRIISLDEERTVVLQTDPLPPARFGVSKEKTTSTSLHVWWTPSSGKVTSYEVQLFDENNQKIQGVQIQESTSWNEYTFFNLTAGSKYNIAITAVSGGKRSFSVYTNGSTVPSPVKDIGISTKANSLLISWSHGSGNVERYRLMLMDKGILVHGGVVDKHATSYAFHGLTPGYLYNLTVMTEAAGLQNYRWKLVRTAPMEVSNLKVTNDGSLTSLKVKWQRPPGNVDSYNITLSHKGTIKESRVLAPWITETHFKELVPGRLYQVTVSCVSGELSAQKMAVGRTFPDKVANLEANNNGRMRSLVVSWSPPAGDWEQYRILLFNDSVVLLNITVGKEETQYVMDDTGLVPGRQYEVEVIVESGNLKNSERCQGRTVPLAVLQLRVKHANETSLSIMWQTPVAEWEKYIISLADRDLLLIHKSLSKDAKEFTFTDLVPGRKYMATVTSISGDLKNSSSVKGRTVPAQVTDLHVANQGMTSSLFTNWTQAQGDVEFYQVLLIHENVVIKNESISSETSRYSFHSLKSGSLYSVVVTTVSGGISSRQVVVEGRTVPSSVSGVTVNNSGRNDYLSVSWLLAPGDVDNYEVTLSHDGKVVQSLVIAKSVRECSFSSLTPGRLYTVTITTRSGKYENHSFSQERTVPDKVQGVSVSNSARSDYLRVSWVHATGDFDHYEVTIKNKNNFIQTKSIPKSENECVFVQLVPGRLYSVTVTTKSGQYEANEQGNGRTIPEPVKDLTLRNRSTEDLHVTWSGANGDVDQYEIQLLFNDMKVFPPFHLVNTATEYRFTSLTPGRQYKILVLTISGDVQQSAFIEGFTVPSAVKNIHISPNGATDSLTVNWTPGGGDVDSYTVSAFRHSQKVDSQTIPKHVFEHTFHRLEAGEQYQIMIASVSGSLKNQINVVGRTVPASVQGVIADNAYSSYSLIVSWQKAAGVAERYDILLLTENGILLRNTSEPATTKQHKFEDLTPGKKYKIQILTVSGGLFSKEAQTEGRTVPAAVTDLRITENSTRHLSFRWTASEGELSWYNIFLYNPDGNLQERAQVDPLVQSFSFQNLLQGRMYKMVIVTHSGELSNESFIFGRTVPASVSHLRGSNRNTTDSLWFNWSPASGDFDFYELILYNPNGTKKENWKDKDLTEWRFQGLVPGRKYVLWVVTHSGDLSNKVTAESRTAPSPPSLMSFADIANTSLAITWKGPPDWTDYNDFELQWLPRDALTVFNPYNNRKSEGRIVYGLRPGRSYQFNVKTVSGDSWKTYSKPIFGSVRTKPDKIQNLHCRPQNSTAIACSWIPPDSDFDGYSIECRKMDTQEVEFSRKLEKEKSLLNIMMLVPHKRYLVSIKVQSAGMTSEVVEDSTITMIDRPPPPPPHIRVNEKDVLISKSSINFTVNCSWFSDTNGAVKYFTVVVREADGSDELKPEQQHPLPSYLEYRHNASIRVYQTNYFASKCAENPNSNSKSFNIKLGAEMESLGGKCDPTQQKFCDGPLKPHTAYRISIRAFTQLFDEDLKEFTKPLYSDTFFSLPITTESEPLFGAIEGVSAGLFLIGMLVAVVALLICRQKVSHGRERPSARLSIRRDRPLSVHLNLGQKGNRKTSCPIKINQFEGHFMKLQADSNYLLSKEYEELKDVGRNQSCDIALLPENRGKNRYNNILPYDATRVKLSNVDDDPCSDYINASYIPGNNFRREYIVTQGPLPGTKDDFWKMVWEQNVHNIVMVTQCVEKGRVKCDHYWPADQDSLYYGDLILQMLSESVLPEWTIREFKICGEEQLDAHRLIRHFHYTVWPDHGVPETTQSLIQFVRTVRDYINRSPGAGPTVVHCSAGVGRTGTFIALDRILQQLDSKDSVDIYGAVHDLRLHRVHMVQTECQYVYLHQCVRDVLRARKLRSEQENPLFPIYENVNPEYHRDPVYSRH

SW480 cells [1] = assay: Click-IT Edu cell proliferation assay, SW480; format: cell-based, human; conditions: 100 µM Salirasib or 25 µM Candesartan, 24 and 48 hr
Description: (§1) The cell proliferation assay was performed using the Click-IT Edu cell proliferation kit from (Thermo Fisher, Cat # C10419) according to the manufacturer’s protocol. Briefly, HEK293T, HCT116 and SW480 cells were plated in 6 well dishes at 4 × 10^5 cell seeding density and treated with DMSO, Candesartan and Salirasib at the indicated concentrations. Edu was added 2 h prior to collecting the cells at 24 h and 48 h time points and the assay was performed according to the instructions from the manual. Flow cytometry with AlexaFluor647 conjugated azide dye was used to determine the cellular proliferation and DAPI was used for the DNA content.

TCPTP = biological target: T4, TCPTP (Homo sapiens, UniProt P17706); assay: PhosphataseProfiler (Eurofins) selectivity panel; format: biochemical; conditions: 25µM
T4 construct: purchased Eurofins PP260
T4 sequence (P17706 whole entry): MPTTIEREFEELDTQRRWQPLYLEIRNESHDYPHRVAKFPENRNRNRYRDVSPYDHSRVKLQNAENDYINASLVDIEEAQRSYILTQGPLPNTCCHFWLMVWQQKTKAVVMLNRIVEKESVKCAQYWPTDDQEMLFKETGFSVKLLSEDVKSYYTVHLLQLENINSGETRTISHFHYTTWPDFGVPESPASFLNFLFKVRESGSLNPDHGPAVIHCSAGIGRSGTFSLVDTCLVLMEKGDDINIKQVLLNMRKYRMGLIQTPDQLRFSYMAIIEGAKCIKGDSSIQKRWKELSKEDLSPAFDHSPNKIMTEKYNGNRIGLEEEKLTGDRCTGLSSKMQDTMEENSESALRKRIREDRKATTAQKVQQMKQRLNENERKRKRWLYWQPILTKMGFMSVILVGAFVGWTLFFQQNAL

ACP1 (LMPTP-A) = biological target: T5, ACP1 (LMPTP-A) (Homo sapiens, UniProt P24666); assay: PhosphataseProfiler (Eurofins) selectivity panel; format: biochemical; conditions: 25µM
T5 construct: purchased Eurofins PP260
T5 sequence (P24666 whole entry): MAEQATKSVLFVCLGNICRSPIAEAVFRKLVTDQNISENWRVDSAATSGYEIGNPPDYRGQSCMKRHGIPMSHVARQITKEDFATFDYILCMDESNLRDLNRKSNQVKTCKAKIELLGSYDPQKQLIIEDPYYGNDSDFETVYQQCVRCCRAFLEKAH
Description: Briefly, protein was diluted in reaction buffer and allowed to incubate at 4 °C for 20 min to allow for full reduction of the active site. DiFMUP, drug, and protein were added, and plates were incubated for 20 min at room temperature. Fluorescence intensities were measured on a Cytation 5 plate reader (Biotek) at an EX:360 nm and EM:460 nm. […] Inhibition selectivity for PRLs over a panel of other phosphatases was determined using PhosphataseProfiler (Eurofins, Cat # PP260).

HEK293T cells [2] = assay: Scratch (migration) assay, HEK293T transfected with PRL-3 or empty vector; format: cell-based, human; conditions: compared to DMSO; for cellular migration in control cells: HEK293T empty vector, 24 h; for cellular migration in PRL-3 overexpressing cells: HEK293T transfected with PRL-3, 24 h
Description: pENTR-PRL-3 (previously described[51]) was cloned into pLKO-CMV-puro using LR clonase (Thermofisher, 11,791,019) according to manufacturer’s directions. pLKO-CMV empty vector (EV) and pLKO-CMV:PRL-3 were transfected into HEK293T using Lipofectamine 3000 (ThermoFisher, L3000015) according to manufacturer’s protocol. Transfected cells were selected with 1 µg/mL puromycin in complete media to establish the cell line, then were maintained under 0.5 µg/mL puromycin in complete media. For PRL-3 knockdown, pLKO.1-scrambled shRNA and pLKO.1-PRL-3 shRNA[51] plasmids were transfected into HCT116 cells using Lipofectamine 3000 (Thermo Fisher, Cat # L3000015) according to the manufacturer’s directions. Cells were selected for 48 h in 1 µg/mL puromycin before use in assays.
Cells were seeded into duplicate wells of a 48 well plates at a density of 2 × 10^5 cells per well for HEK293T or 4 × 10^5 for HCT116 and SW480. Cells were recovered overnight and were scratched using a p20 pipette tip the following day. Compounds were added at the concentrations indicated. Images were obtained immediately after the scratch and after a 24 h incubation with the drug on an Evos FL inverted microscope (ThermoFisher). The area within the scratch was calculated using ImageJ. The area migrated was measured as the difference in wound area at 0 h and 24 h and the percent change in migration was calculated by dividing the difference in wound area of treatment by the difference in wound area of the control.

HCT116 cells [3] = assay: Click-IT Edu cell proliferation assay, HCT116; format: cell-based, human; conditions: HCT-116; 100 µM Salirasib or 25 µM Candesartan; 24 and 48 hr
Description: as §1

PTPRM = biological target: T6, PTPRM (Homo sapiens, UniProt P28827); assay: PhosphataseProfiler (Eurofins) selectivity panel; format: biochemical; conditions: 25µM
T6 construct: purchased Eurofins PP260
T6 sequence (P28827 21-1452): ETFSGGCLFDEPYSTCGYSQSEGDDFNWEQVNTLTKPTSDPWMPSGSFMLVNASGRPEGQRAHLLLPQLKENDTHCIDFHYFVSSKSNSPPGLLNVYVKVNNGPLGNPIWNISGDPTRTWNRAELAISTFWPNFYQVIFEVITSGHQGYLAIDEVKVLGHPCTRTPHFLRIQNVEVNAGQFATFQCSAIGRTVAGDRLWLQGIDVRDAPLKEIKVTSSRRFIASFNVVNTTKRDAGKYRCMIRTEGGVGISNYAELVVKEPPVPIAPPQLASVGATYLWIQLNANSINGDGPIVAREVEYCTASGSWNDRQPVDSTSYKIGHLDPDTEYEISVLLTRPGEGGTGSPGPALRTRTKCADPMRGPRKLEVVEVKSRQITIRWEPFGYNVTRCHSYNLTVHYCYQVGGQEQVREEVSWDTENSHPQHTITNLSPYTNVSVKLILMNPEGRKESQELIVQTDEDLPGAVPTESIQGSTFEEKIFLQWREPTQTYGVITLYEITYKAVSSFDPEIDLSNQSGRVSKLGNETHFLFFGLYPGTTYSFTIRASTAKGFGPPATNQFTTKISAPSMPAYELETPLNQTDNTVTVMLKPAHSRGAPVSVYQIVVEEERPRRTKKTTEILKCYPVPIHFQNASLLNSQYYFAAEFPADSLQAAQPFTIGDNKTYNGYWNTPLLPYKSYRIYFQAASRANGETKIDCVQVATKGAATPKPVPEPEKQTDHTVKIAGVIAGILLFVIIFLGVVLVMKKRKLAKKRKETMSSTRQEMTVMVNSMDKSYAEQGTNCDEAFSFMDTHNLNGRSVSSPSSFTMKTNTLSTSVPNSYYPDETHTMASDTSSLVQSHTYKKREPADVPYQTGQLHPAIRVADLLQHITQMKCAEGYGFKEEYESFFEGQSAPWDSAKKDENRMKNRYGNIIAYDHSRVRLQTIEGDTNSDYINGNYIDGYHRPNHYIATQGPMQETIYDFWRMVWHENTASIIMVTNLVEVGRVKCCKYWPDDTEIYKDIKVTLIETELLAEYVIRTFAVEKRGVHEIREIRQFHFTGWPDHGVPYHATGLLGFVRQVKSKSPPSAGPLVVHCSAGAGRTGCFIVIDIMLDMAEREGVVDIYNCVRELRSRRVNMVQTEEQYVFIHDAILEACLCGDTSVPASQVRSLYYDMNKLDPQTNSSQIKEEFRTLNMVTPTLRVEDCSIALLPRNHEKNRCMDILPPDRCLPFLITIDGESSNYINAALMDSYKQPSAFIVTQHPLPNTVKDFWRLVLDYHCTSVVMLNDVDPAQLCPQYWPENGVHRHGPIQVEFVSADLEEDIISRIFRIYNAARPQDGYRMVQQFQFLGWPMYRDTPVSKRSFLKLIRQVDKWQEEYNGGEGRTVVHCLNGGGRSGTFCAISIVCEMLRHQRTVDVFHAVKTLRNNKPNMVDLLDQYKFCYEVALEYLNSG

HCT116 cells [4] = assay: Annexin V staining, HCT116; format: cell-based, human; conditions: HCT-116; 100 µM Salirasib or 25 µM Candesartan; 24 and 48 hr
Description: (§2) HEK293T, HCT116, and SW480 cells were plated in 6 well dishes at 4 × 10^5 cell seeding density and treated with DMSO, Candesartan and Salirasib at the indicated concentrations. Cells were collected at 24 h and 48 h time points and the AnnexinV staining was performed according to the instructions from the manual (Thermo Fisher, Cat # 00-0055-56). Flow cytometry with AnnexinV-FITC conjugated antibody (Thermo Fisher, Cat # A13199) was used to determine the population of cells incorporating Annexin V and PI was used for the DNA content.

HEK293T cells [5] = assay: Annexin V staining, HEK293T; format: cell-based, human; conditions: 100 µM Salirasib or 25 µM Candesartan, 24 and 48 hr
Description: as §2

SW480 cells [6] = assay: Annexin V staining, SW480; format: cell-based, human; conditions: 100 µM Salirasib or 25 µM Candesartan, 24 and 48 hr
Description: as §2

Yoph = biological target: T7, Yoph (Yersinia enterocolitica, UniProt P15273); assay: PhosphataseProfiler (Eurofins) selectivity panel; format: biochemical; conditions: 25µM
T7 construct: purchased Eurofins PP260
Description: In 384 well plates, 2.5 μM recombinant PRL-1, PRL-2, or PRL-3 was combined with DiFUMP (Life Technologies, Cat # E12020) at the KM of each protein in reaction buffer (20 mM Tris–Cl, pH 7.5, 150 mM NaCl, 10 mM DTT) as previously reported. Briefly, protein was diluted in reaction buffer and allowed to incubate at 4 °C for 20 min to allow for full reduction of the active site. DiFMUP, drug, and protein were added, and plates were incubated for 20 min at room temperature. Fluorescence intensities were measured on a Cytation 5 plate reader (Biotek) at an EX:360 nm and EM:460 nm. Data were normalized to vehicle control and IC50 values were calculated on GraphPad Prism version 8. Inhibition selectivity for PRLs over a panel of other phosphatases was determined using PhosphataseProfiler (Eurofins, Cat # PP260).

| SMILES | IC50 (recombinant PRL-3; 2.5 µM protein) | mode of inhibition (Lineweaver-Burke analysis) (recombinant PRL-3) | phospho-ERK levels (phospho-ERK) | Percent Phosphatase Activity (compared to DMSO) (MKP5) | Percent Phosphatase Activity (compared to DMSO) (PTPbeta) | cell cycle (EdU staining) (SW480 cells [1]) | Percent Phosphatase Activity (compared to DMSO) (TCPTP) | Percent Phosphatase Activity (compared to DMSO) (ACP1 (LMPTP-A)) | cellular migration in control cells (HEK293T cells [2]) | cellular migration in PRL-3 overexpressing cells (HEK293T cells [2]) | cell cycle (EdU staining) (HCT116 cells [3]) | Percent Phosphatase Activity (compared to DMSO) (PTPRM) | % Phosphatase Activity (compared to DMSO) PRL-3 (recombinant PRL-3) | % Phosphatase Activity (compared to DMSO) PRL-3 (recombinant PRL-3; listed as Candesartan Cilexetil) | IC50 (recombinant PRL-3; […] protein) | apoptosis (AnnexinV plus propidium iodide) (HCT116 cells [4]) | apoptosis (AnnexinV plus propidium iodide) (HEK293T cells [5]) | apoptosis (AnnexinV plus propidium iodide) (SW480 cells [6]) | Percent Phosphatase Activity (compared to DMSO) (Yoph) |
| --- | --- | --- | --- | --- | --- | --- | --- | --- | --- | --- | --- | --- | --- | --- | --- | --- | --- | --- | --- |
| CC(C)=CCC/C(C)=C/CC/C(C)=C/CSc1ccccc1C(=O)O [Salirasib] | 27 ± 3 µM | non-competitive inhibitors | decreased phospho-ERK levels | 106% | 91% | did not significantly impact | 118% | 96% | no corresponding reduction in migration | significant inhibition of cellular migration | did not significantly impact | 111% |  |  |  |  |  |  |  |
| CCOc1nc2cccc(C(=O)O)c2n1Cc1ccc(-c2ccccc2-c2nnn[nH]2)cc1 [Candesartan] |  | non-competitive inhibitors | decreased phospho-ERK levels | 99% | 85% | did not significantly impact | 128% | 97% | no corresponding reduction in migration | significant inhibition of cellular migration | did not significantly impact | 107% | 82% | -3.55% | 28 ± 4 µM | did not significantly impact | did not significantly impact | did not significantly impact | 112% |
